Data taken from US20230321287A1, “RADIOLABELLED GRPR-ANTAGONIST FOR USE AS THERAGNOSTIC” (NOVARTIS AG, priority 2019, published 2023).

Experiments:
[1] = clinical; conditions: human
Excerpt: To obtain SUVmean aorta, a spherical volume with a diameter of two (2) cm should be measured within the aortic arch. All SUVr values above one (1) are considered as positive GRPR overexpression.
SUVr is the ratio between SUV mean of each lesion detected by [^68Ga]-NeoBOMB1 and the SUVmean of the region of reference.

[2] = maximum injected activity of 250 MBq
[3] = 6 patients with GIST; cited from earlier work
[4] = biological target: T1, GRPR (Homo sapiens, UniProt P30550); experiment: clinical; conditions: dosimetry group, breast cancer N=2
Excerpt: (§1) The primary objective was to characterize preliminary targeting properties of [68Ga] NeoB in patients with malignancies known to overexpress GRPR. The primary efficacy endpoints were: • Number and location of tumor lesions detected by [68Ga]-NeoBOMB1 overall and for each tumor type • Calculation of the ratio tumor/background standard uptake value (SUV) and %injected dose per gram of tissue (ID/g) and calculation of absorbed dose (mGy/MBq) in tumor overall and for each tumor type.
(§2) The dosimetry group comprised only patients with breast cancer (N=2).
Target sequence in this assay (P30550 whole entry): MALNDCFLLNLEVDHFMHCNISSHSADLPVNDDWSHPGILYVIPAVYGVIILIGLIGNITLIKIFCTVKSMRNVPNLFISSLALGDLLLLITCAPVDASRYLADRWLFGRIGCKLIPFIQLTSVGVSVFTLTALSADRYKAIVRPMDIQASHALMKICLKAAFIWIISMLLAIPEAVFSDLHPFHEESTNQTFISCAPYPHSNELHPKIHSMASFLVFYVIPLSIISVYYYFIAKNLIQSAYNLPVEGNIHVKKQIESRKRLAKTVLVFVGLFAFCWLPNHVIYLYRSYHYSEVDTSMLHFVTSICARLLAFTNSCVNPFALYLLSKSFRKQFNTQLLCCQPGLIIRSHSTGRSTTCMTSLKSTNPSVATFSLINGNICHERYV

[5] = clinical; conditions: human, tumor lesions; for SUV at 2.5 h / SUV at 1.5 h: non-dosimetry group; for SUV at 2.5 h: breast tumors, 2 h 30 minutes; for SUV at 1.5 h: prostatic tumors, 1 h 30 minutes
Excerpt: as §1, §2

[6] = biological target: T1, GRPR; experiment: lesion-level analysis, [68Ga]-NeoB PET versus conventional imaging; assay type: in vivo; parameters: from tissue; host or cells: tumour lesions in patients (breast, prostate, colorectal, NSCL, SCL cancer), in vivo
Protocol: PET/CT or PET/MRI imaging is performed after the compound 1 administration ideally at 2 h 30 min ±30 min.
The spleen is the reference region to assess pathological [68Ga]-NeoB uptake.
NeoB in patients with malignancies known to overexpress GRPR.
Target sequence in this assay (P30550 whole entry): as above

[7] = biological target: T1, GRPR; conditions: GRPR expressed in breast, prostate and GIST; non-clinical models; cited from earlier work
Target sequence in this assay (P30550 whole entry, species assumed): as the sequence (P30550 whole entry) above

[8] = in vivo

With CC(C)CC(CC(C)C)NC(=O)[C@H](Cc1cnc[nH]1)NC(=O)CNC(=O)[C@@H](NC(=O)[C@H](C)NC(=O)[C@H](Cc1c[nH]c2ccccc12)NC(=O)[C@H](CCC(N)=O)NC(=O)[C@@H](Cc1ccccc1)NC(=O)COCC(=O)Nc1ccc(CNC(=O)CN2CCN(CC(=O)O)CCN(CC(=O)O)CCN(CC(=O)O)CC2)cc1)C(C)C [[68Ga]-NeoB, metal not drawn] the SUV ([1]; lesion / region of reference) was about 1 SUV, the SUV ([1]; lesion / spleen or MBP (aorta or heart)) was over 1 SUV and the “estimated effective dose per exam” value [2] was 7.25 mSv. For the same compound, the “effective dose, mean” value [3] was 0.029 ± 0.06 mSv/MBq, the “time at which SUVmax values in lesions peaked” value [4] was 4 h and the “time at which SUVmean values in lesions peaked” value [4] was 15 min. It also gave an SUV at 2.5 h ([5]; overall (breast tumors), highest SUVmax, overall) of 23.1 SUV, an SUV at 1.5 h ([5]; overall locations (prostatic tumors), highest SUVmean, overall locations) of 11.6 SUV and an SUV at 2 h ([5]; soft tissue/visceral (breast cancer), highest SUVmax, dosimetry group, breast cancer N=2, soft tissue/visceral, 2 h) of 25.8 SUV. For the same compound, the SUV at 4 h ([5]; soft tissue/visceral (breast cancer), highest SUVmax, dosimetry group, breast cancer N=2, soft tissue/visceral) was 26.4 SUV, the SUV at 0.25 h ([5]; soft tissue/visceral (breast cancer), highest SUVmean, dosimetry group, breast cancer N=2, soft tissue/visceral, 15 minutes) was 9.24 SUV and the SUV at 4 h ([5]; soft tissue/visceral (breast cancer), highest SUVmean, dosimetry group, breast cancer N=2, soft tissue/visceral) was 9.14 SUV. For the same compound, the SUV at 2.5 h ([5]; soft tissue/visceral (breast tumors), highest SUVmax, soft tissue/visceral) was 22.1 SUV, the SUV at 1.5 h ([5]; soft tissue/visceral (prostatic tumors), highest SUVmean, soft tissue/visceral) was 14 SUV and the Number of lesions ([6]; Breast N=5, [68Ga]-NeoB Negative, conventional imaging Positive) was 44. It also gave a Number of lesions ([6]; Breast N=5, [68Ga]-NeoB Negative, conventional imaging Total) of 44, a Number of lesions ([6]; Breast N=5, [68Ga]-NeoB Positive, conventional imaging Negative) of 37 and a Number of lesions ([6]; Breast N=5, [68Ga]-NeoB Positive, conventional imaging Positive) of 48. The Number of lesions ([6]; Breast N=5, [68Ga]-NeoB Positive, conventional imaging Total) was 85, the Number of lesions ([6]; Breast N=5, [68Ga]-NeoB Total, conventional imaging Negative) was 37 and the Number of lesions ([6]; Breast N=5, [68Ga]-NeoB Total, conventional imaging Positive) was 92. The Number of lesions ([6]; Breast N=5, [68Ga]-NeoB Total, conventional imaging Total) was 129, the “lesions identified by conventional imaging also identified by [68Ga]-NeoB” value (shortened to “lesions identified”) ([6]; Breast cancer N=5) was 52.2% and the Number of lesions ([6]; Colorectal N=5, [68Ga]-NeoB Negative, conventional imaging Positive) was 43. For the same compound, the Number of lesions ([6]; Colorectal N=5, [68Ga]-NeoB Negative, conventional imaging Total) was 43, the Number of lesions ([6]; Colorectal N=5, [68Ga]-NeoB Positive, conventional imaging Negative) was 0 and the Number of lesions ([6]; Colorectal N=5, [68Ga]-NeoB Positive, conventional imaging Positive) was 18. The Number of lesions ([6]; Colorectal N=5, [68Ga]-NeoB Positive, conventional imaging Total) was 18, the Number of lesions ([6]; Colorectal N=5, [68Ga]-NeoB Total, conventional imaging Negative) was 0 and the Number of lesions ([6]; Colorectal N=5, [68Ga]-NeoB Total, conventional imaging Positive) was 61. For the same compound, the Number of lesions ([6]; Colorectal N=5, [68Ga]-NeoB Total, conventional imaging Total) was 61, the “lesions identified” value ([6]; Colorectal cancer N=5) was 29.5% and the Number of lesions ([6]; NSCL N=3, [68Ga]-NeoB Negative, conventional imaging Positive) was 20. It also gave a Number of lesions ([6]; NSCL N=3, [68Ga]-NeoB Negative, conventional imaging Total) of 20, a Number of lesions ([6]; NSCL N=3, [68Ga]-NeoB Positive, conventional imaging Negative) of 0 and a Number of lesions ([6]; NSCL N=3, [68Ga]-NeoB Positive, conventional imaging Positive) of 10. The Number of lesions ([6]; NSCL N=3, [68Ga]-NeoB Positive, conventional imaging Total) was 10, the Number of lesions ([6]; NSCL N=3, [68Ga]-NeoB Total, conventional imaging Negative) was 0 and the Number of lesions ([6]; NSCL N=3, [68Ga]-NeoB Total, conventional imaging Positive) was 30. For the same compound, the Number of lesions ([6]; NSCL N=3, [68Ga]-NeoB Total, conventional imaging Total) was 30, the “lesions identified” value ([6]; NSCL cancer N=3) was 33.3% and the Number of lesions ([6]; Prostate N=5, [68Ga]-NeoB Negative, conventional imaging Positive) was 59. It also gave a Number of lesions ([6]; Prostate N=5, [68Ga]-NeoB Negative, conventional imaging Total) of 59, a Number of lesions ([6]; Prostate N=5, [68Ga]-NeoB Positive, conventional imaging Negative) of 1 and a Number of lesions ([6]; Prostate N=5, [68Ga]-NeoB Positive, conventional imaging Positive) of 10. For the same compound, the Number of lesions ([6]; Prostate N=5, [68Ga]-NeoB Positive, conventional imaging Total) was 11, the Number of lesions ([6]; Prostate N=5, [68Ga]-NeoB Total, conventional imaging Negative) was 1 and the Number of lesions ([6]; Prostate N=5, [68Ga]-NeoB Total, conventional imaging Positive) was 69. The Number of lesions ([6]; Prostate N=5, [68Ga]-NeoB Total, conventional imaging Total) was 70, the “lesions identified” value ([6]; Prostate cancer N=5) was 14.5% and the Number of lesions ([6]; SCL N=1, [68Ga]-NeoB Negative, conventional imaging Positive) was 1. It also gave a Number of lesions ([6]; SCL N=1, [68Ga]-NeoB Negative, conventional imaging Total) of 1, a Number of lesions ([6]; SCL N=1, [68Ga]-NeoB Positive, conventional imaging Negative) of 0 and a Number of lesions ([6]; SCL N=1, [68Ga]-NeoB Positive, conventional imaging Positive) of 1. The Number of lesions ([6]; SCL N=1, [68Ga]-NeoB Positive, conventional imaging Total) was 1, the Number of lesions ([6]; SCL N=1, [68Ga]-NeoB Total, conventional imaging Negative) was 0 and the Number of lesions ([6]; SCL N=1, [68Ga]-NeoB Total, conventional imaging Positive) was 2. For the same compound, the Number of lesions ([6]; SCL N=1, [68Ga]-NeoB Total, conventional imaging Total) was 2, the “lesions identified” value ([6]; SCL cancer N=1) was 50% and the Number of lesions ([6]; overall cancer N=19, Nodal, [68Ga]-NeoB Negative, conventional imaging Positive) was 36. For the same compound, the Number of lesions ([6]; overall cancer N=19, Nodal, [68Ga]-NeoB Negative, conventional imaging Total) was 36, the Number of lesions ([6]; overall cancer N=19, Nodal, [68Ga]-NeoB Positive, conventional imaging Negative) was 1 and the Number of lesions ([6]; overall cancer N=19, Nodal, [68Ga]-NeoB Positive, conventional imaging Positive) was 18. It also gave a Number of lesions ([6]; overall cancer N=19, Nodal, [68Ga]-NeoB Positive, conventional imaging Total) of 19, a Number of lesions ([6]; overall cancer N=19, Nodal, [68Ga]-NeoB Total, conventional imaging Negative) of 1 and a Number of lesions ([6]; overall cancer N=19, Nodal, [68Ga]-NeoB Total, conventional imaging Positive) of 54. For the same compound, the Number of lesions ([6]; overall cancer N=19, Nodal, [68Ga]-NeoB Total, conventional imaging Total) was 55, the Number of lesions ([6]; overall cancer N=19, Overall, [68Ga]-NeoB Negative, conventional imaging Positive) was 167 and the Number of lesions ([6]; overall cancer N=19, Overall, [68Ga]-NeoB Negative, conventional imaging Total) was 167. For the same compound, the Number of lesions ([6]; overall cancer N=19, Overall, [68Ga]-NeoB Positive, conventional imaging Negative) was 38, the Number of lesions ([6]; overall cancer N=19, Overall, [68Ga]-NeoB Positive, conventional imaging Positive) was 87 and the Number of lesions ([6]; overall cancer N=19, Overall, [68Ga]-NeoB Positive, conventional imaging Total) was 125. For the same compound, the Number of lesions ([6]; overall cancer N=19, Overall, [68Ga]-NeoB Total, conventional imaging Negative) was 38, the Number of lesions ([6]; overall cancer N=19, Overall, [68Ga]-NeoB Total, conventional imaging Positive) was 254 and the Number of lesions ([6]; overall cancer N=19, Overall, [68Ga]-NeoB Total, conventional imaging Total) was 292. The Number of lesions ([6]; overall cancer N=19, Skeletal, [68Ga]-NeoB Negative, conventional imaging Positive) was 85, the Number of lesions ([6]; overall cancer N=19, Skeletal, [68Ga]-NeoB Negative, conventional imaging Total) was 85 and the Number of lesions ([6]; overall cancer N=19, Skeletal, [68Ga]-NeoB Positive, conventional imaging Negative) was 12. It also gave a Number of lesions ([6]; overall cancer N=19, Skeletal, [68Ga]-NeoB Positive, conventional imaging Positive) of 17, a Number of lesions ([6]; overall cancer N=19, Skeletal, [68Ga]-NeoB Positive, conventional imaging Total) of 29 and a Number of lesions ([6]; overall cancer N=19, Skeletal, [68Ga]-NeoB Total, conventional imaging Negative) of 12. For the same compound, the Number of lesions ([6]; overall cancer N=19, Skeletal, [68Ga]-NeoB Total, conventional imaging Positive) was 102, the Number of lesions ([6]; overall cancer N=19, Skeletal, [68Ga]-NeoB Total, conventional imaging Total) was 114 and the Number of lesions ([6]; overall cancer N=19, Skin/Superficial, [68Ga]-NeoB Negative, conventional imaging Positive) was 1. For the same compound, the Number of lesions ([6]; overall cancer N=19, Skin/Superficial, [68Ga]-NeoB Negative, conventional imaging Total) was 1, the Number of lesions ([6]; overall cancer N=19, Skin/Superficial, [68Ga]-NeoB Positive, conventional imaging Negative) was 0 and the Number of lesions ([6]; overall cancer N=19, Skin/Superficial, [68Ga]-NeoB Positive, conventional imaging Positive) was 2. For the same compound, the Number of lesions ([6]; overall cancer N=19, Skin/Superficial, [68Ga]-NeoB Positive, conventional imaging Total) was 2, the Number of lesions ([6]; overall cancer N=19, Skin/Superficial, [68Ga]-NeoB Total, conventional imaging Negative) was 0 and the Number of lesions ([6]; overall cancer N=19, Skin/Superficial, [68Ga]-NeoB Total, conventional imaging Positive) was 3. It also gave a Number of lesions ([6]; overall cancer N=19, Skin/Superficial, [68Ga]-NeoB Total, conventional imaging Total) of 3, a Number of lesions ([6]; overall cancer N=19, Soft Tissus/Visceral, [68Ga]-NeoB Negative, conventional imaging Positive) of 45 and a Number of lesions ([6]; overall cancer N=19, Soft Tissus/Visceral, [68Ga]-NeoB Negative, conventional imaging Total) of 45. The Number of lesions ([6]; overall cancer N=19, Soft Tissus/Visceral, [68Ga]-NeoB Positive, conventional imaging Negative) was 25, the Number of lesions ([6]; overall cancer N=19, Soft Tissus/Visceral, [68Ga]-NeoB Positive, conventional imaging Positive) was 50 and the Number of lesions ([6]; overall cancer N=19, Soft Tissus/Visceral, [68Ga]-NeoB Positive, conventional imaging Total) was 75. The Number of lesions ([6]; overall cancer N=19, Soft Tissus/Visceral, [68Ga]-NeoB Total, conventional imaging Negative) was 25, the Number of lesions ([6]; overall cancer N=19, Soft Tissus/Visceral, [68Ga]-NeoB Total, conventional imaging Positive) was 95 and the Number of lesions ([6]; overall cancer N=19, Soft Tissus/Visceral, [68Ga]-NeoB Total, conventional imaging Total) was 120. For the same compound, the “lesions identified” value ([6]; regardless the cancer type, N=19) was 34.3%, the “lesions identified” value ([6]; soft tissue and visceral tissue regardless the cancer type) was 52.6% and the “affinity to the GRPR” value [7] was “high affinity”. The “calculated human dose extrapolated from animal model” value [8] was 0.039 mSv/MBq.
